In patent publication US12275731B2, “Azaindole inhibitors of wild-type and mutant forms of LRRK2” (DANA-FARBER CANCER INSTITUTE, INC., priority 2018, dated 2025):

Key:
Assay in all cases: KinomeScan profiling
Format in all cases: binding
[1] = molecular target: T1, NEK5 (Homo sapiens, UniProt Q6P3R8); conditions: NEK5, 1 μM; read-out: % control
T1 sequence (Q6P3R8 1-708): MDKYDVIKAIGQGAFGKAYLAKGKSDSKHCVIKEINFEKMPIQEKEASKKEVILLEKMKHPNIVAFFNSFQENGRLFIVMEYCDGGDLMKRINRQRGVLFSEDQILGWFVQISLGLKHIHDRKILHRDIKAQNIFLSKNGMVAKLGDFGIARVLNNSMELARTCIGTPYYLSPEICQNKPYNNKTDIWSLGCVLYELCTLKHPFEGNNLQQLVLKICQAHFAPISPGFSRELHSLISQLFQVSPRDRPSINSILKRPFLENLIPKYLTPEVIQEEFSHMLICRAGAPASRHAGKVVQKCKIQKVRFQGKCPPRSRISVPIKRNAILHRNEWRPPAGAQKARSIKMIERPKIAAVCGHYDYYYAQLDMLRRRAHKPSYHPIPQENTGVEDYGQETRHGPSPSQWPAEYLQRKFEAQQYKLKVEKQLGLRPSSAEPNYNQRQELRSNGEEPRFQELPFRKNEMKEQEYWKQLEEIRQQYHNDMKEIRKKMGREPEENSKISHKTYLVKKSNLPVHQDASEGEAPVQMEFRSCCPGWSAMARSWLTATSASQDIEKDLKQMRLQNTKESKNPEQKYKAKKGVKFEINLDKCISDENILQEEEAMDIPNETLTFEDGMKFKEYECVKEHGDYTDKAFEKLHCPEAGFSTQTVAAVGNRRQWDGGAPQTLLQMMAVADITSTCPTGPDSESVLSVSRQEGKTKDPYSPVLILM
Summary of the method: (§1)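 Single-point competition binding screen: 1 μM, DMSO, 468 kinases. Results reported as % control from RLU, normalised to DMSO and positive-control wells. Activity threshold: <35% control.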

[2] = molecular target: CDK8 (Homo sapiens, UniProt P49336); conditions: CDK8, 1 μM; read-out: % control
Summary of the method: as §1

[3] = molecular target: T2, TYK2(JH1domain-catalytic) (Homo sapiens, UniProt P29597); conditions: read-out: % control
T2 construct: tyrosine kinase 2 (TYK2)(JH1domain-catalytic)
T2 sequence (P29597 897-1176 limits assumed): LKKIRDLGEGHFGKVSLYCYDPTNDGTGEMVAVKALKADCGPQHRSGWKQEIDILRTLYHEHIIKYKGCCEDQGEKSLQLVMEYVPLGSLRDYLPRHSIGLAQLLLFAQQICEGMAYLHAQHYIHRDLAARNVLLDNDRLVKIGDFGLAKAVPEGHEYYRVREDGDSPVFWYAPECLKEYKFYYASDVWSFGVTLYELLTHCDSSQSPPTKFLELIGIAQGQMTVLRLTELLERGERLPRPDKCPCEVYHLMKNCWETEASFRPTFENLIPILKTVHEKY
Summary of the method: as §1

[4] = molecular target: T3, RSK3(Kin.Dom.2-C-terminal) (Homo sapiens, UniProt Q15349); conditions: read-out: % control
T3 construct: RSK3(Kin.Dom.2-C-terminal)
Summary of the method: as §1

[5] = molecular target: T4, JAK3(JH1domain-catalytic) (Homo sapiens, UniProt P52333); conditions: read-out: % control
T4 construct: JAK3(JH1domain-catalytic); purchased KinomeScan®
Summary of the method: as §1

[6] = molecular target: GSK3A (Homo sapiens, UniProt P49840); conditions: read-out: % control
Summary of the method: as §1

[7] = molecular target: T5, ANKK1 (Homo sapiens, UniProt Q8NFD2); conditions: ANKK1, 1 μM; read-out: % control
T5 construct: purchased KinomeScan®
T5 sequence (Q8NFD2 1-765): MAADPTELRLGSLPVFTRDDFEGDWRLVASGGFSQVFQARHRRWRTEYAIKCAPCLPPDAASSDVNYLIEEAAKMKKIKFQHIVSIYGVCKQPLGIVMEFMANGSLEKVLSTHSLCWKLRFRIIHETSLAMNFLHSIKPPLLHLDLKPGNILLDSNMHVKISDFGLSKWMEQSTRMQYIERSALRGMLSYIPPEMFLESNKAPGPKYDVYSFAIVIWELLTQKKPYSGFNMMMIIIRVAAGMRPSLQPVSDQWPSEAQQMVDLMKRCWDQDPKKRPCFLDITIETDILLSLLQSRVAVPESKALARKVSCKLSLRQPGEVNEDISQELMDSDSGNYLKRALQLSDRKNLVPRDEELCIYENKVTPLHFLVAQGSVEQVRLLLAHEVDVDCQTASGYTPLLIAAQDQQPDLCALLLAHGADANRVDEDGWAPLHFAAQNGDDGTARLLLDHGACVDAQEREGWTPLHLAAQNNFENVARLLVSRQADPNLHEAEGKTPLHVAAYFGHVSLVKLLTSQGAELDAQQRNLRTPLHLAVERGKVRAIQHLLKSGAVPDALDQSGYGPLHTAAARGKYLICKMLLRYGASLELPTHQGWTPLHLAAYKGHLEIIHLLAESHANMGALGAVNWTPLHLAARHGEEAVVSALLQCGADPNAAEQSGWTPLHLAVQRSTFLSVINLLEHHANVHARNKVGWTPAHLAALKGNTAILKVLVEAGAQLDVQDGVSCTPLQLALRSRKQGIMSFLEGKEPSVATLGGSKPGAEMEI
Summary of the method: as §1

T3 sequence (Q15349 415-672 limits assumed): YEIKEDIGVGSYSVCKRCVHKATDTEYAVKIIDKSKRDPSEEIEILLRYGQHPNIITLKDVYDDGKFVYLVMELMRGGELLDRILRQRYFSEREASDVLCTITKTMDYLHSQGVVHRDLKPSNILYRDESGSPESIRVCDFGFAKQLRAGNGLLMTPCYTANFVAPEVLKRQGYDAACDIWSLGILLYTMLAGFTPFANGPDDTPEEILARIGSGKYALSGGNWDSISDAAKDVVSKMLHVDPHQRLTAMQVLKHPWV
GSK3A, sequence (P49840 whole entry): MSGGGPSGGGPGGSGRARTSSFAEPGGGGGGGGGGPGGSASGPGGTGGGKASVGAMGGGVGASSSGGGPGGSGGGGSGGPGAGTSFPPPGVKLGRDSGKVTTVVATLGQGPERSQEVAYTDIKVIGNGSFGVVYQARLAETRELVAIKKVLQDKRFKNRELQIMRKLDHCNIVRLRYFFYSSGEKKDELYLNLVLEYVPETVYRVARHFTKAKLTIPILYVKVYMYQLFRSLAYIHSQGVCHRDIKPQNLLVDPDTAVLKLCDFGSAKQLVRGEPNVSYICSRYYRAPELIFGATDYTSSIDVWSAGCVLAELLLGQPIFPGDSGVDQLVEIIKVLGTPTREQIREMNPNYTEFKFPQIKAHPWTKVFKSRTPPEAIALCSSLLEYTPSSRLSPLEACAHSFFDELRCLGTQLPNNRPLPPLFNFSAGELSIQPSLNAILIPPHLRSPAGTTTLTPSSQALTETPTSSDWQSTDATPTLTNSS
T4 sequence (P52333 822-1111 limits assumed): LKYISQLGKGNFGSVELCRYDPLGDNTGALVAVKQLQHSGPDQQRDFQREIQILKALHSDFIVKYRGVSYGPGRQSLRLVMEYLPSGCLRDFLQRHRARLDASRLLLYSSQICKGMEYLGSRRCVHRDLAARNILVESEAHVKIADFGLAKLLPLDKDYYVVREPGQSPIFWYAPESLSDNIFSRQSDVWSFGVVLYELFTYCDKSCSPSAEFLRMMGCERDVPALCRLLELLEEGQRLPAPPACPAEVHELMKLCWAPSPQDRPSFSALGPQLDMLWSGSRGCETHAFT
CDK8, sequence (P49336 whole entry): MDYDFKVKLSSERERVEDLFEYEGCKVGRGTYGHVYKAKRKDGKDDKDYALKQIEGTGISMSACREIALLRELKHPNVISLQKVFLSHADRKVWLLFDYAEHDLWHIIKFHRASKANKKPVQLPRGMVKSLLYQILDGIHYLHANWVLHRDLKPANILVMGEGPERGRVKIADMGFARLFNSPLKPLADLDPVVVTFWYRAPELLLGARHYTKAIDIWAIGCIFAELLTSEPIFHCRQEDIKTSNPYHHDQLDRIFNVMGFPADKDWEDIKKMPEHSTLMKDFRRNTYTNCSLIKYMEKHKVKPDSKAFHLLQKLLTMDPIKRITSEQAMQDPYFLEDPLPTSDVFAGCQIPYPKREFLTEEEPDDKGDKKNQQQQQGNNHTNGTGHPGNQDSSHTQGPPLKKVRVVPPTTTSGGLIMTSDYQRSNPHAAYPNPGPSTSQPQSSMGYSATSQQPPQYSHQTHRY

Structure (SMILES) | remaining binding at 1 µM [1] [%] | remaining binding at 1 µM [2] [%] | remaining binding at 1 µM [3] [%] | remaining binding at 1 µM [4] [%] | remaining binding at 1 µM [5] [%] | remaining binding at 1 µM [6] [%] | remaining binding at 1 µM [7] [%]
CNc1c(-c2ccc(C(=O)N3CCC(N4CCOCC4)CC3)cc2)cnc2[nH]cc(Cl)c12 [Compound 96, (4-(3-chloro-4-(methylamino)-1H-pyrrolo[2,3-b]pyridin-5-yl)phenyl)(4-morpholinopiperidin-1-yl)methanone] | 99 | 82 | 29 | 78 | 7.8 | 65 | 51
O=C(c1ccc(-c2cnc3[nH]cc(Cl)c3c2NC2CCCC2)cc1)N1CCC(N2CCOCC2)CC1 [Compound 101, (4-(3-chloro-4-(cyclopentylamino)-1H-pyrrolo[2,3-b]pyridin-5-yl)phenyl)(4-morpholinopiperidin-1-yl)methanone] | 99 | 59 | 100 | 77 | 62 | 42 | 100
CNc1c(-c2cnn([C@H]3CCN(C(C)=O)C[C@@H]3F)c2)cnc2[nH]cc(Cl)c12 [Compound 77, 1-((3S,4S)-4-(4-(3-chloro-4-(methylamino)-1H-pyrrolo[2,3-b]pyridin-5-yl)-1H-pyrazol-1-yl)-3-fluoropiperidin-1-yl)ethan-1-one] | 79 | 100 | 15 | 100 | 8.2 | 98 | 73
